Results as given in ChEMBL document CHEMBL1201862, “PubChem BioAssay data set” (2004).
Calls of active or inactive are those of the source.

What was measured:
Cytochrome P450 2C19 = Cytochrome P450 2C19 (Homo sapiens, UniProt P33261); experiment: Cytochrome panel assay with activity outcomes. Panel member name: p450-cyp2c19 Compounds with AC50 equal or less than 10 uM are considered active; assay type: functional; details: read-out: AC50
[1] = molecular target: 1-phosphatidylinositol 4,5-bisphosphate phosphodiesterase gamma-1 (Homo sapiens, UniProt P19174); experiment: Counterscreen for inhibitors of phospholipase C isozymes (PLC-B3): Fluorescence-based biochemical high throughput dose response assay to identify inhibitors of phospholipase C isozymes (PLC-gamma1).
1-phosphatidylinositol 4,5-bisphosphate phosphodiesterase gamma-1, sequence (P19174 whole entry): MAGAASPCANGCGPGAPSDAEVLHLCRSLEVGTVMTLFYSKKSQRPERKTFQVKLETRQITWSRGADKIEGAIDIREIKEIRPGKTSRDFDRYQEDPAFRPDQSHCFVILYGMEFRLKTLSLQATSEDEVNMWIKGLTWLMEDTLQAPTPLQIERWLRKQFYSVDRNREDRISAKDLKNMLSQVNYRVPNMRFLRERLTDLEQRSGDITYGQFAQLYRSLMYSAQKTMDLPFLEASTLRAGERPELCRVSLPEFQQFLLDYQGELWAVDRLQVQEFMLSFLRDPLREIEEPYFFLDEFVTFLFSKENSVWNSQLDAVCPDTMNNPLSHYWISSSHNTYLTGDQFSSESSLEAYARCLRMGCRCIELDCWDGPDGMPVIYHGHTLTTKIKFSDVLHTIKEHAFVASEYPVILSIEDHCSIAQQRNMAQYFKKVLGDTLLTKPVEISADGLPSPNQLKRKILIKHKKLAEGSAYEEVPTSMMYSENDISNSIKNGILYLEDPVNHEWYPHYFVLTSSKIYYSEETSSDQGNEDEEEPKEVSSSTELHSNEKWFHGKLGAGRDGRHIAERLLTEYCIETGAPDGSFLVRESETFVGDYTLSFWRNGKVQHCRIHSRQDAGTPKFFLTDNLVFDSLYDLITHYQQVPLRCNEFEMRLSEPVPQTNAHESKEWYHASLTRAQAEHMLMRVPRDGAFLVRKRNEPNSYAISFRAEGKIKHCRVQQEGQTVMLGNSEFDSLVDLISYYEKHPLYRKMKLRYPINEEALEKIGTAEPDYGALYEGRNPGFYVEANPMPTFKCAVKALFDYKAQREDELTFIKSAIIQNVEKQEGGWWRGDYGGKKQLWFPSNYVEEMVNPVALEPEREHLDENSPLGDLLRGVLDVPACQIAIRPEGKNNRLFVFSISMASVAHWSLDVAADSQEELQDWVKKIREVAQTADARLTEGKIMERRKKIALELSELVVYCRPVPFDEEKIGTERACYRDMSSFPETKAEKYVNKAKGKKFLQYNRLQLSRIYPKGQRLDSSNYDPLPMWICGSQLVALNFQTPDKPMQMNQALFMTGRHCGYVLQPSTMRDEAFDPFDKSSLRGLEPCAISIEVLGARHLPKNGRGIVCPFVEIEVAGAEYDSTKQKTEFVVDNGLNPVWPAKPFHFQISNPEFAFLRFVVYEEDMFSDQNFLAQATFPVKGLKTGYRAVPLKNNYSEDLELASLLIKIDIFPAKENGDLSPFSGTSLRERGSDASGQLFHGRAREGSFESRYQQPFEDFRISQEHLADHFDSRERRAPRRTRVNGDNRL

[2] = molecular target: 1-phosphatidylinositol 4,5-bisphosphate phosphodiesterase beta-3 (Homo sapiens, UniProt Q01970); experiment: Fluorescence-based biochemical high throughput dose response assay to identify inhibitors of phospholipase C isozymes (PLC-B3).
1-phosphatidylinositol 4,5-bisphosphate phosphodiesterase beta-3, sequence (Q01970 whole entry): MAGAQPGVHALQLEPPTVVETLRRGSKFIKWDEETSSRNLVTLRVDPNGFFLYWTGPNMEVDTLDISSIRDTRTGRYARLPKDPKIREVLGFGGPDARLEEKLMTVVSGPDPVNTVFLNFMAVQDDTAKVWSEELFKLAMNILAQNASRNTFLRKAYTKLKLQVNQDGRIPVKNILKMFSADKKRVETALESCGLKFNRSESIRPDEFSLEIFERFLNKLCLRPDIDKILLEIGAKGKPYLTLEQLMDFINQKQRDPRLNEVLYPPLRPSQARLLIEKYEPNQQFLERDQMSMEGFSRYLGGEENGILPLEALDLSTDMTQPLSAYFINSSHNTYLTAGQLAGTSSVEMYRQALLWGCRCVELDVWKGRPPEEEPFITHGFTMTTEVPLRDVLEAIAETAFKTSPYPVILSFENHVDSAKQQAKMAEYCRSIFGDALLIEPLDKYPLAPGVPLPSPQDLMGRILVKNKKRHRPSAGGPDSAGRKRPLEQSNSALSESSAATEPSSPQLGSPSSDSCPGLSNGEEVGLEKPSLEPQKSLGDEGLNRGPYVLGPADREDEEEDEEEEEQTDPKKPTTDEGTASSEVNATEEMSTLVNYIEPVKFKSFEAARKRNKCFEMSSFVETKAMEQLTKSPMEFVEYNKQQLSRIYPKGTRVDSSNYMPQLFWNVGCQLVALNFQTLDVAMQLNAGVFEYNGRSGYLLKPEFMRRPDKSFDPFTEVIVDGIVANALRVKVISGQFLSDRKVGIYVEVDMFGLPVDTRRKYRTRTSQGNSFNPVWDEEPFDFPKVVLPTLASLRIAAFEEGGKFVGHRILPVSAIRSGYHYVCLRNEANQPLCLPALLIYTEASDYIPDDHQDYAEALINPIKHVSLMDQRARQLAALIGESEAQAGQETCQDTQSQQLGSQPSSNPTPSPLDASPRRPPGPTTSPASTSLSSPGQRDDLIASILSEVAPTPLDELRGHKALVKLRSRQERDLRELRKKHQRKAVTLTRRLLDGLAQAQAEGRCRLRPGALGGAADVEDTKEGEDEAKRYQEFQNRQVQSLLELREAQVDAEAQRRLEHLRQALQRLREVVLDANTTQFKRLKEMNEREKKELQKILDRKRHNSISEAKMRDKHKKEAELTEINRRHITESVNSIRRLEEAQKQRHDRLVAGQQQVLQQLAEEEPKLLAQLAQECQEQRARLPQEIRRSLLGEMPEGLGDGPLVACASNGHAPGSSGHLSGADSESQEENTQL

Cytochrome P450 2D6 = Cytochrome P450 2D6 (Homo sapiens, UniProt P10635);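 further: CYP2D6 member of a cytochrome P450 panel assay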
Cytochrome P450 2D6, sequence (P10635 whole entry): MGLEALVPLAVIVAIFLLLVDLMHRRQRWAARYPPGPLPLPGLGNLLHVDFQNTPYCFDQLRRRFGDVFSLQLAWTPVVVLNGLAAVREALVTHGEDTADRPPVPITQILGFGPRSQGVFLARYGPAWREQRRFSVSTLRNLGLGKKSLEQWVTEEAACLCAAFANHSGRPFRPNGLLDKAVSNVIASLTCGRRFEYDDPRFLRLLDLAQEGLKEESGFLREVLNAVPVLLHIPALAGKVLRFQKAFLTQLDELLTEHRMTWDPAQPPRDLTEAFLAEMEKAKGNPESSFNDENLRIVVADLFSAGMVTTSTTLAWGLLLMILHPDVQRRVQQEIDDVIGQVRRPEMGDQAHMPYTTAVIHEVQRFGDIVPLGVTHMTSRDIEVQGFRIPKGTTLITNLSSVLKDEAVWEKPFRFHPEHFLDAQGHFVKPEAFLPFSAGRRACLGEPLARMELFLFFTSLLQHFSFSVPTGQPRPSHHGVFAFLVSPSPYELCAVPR

Cytochrome P450 2C9 = Cytochrome P450 2C9 (Homo sapiens, UniProt P11712)
Cytochrome P450 2C9, sequence (P11712 whole entry, the tested form may be a part): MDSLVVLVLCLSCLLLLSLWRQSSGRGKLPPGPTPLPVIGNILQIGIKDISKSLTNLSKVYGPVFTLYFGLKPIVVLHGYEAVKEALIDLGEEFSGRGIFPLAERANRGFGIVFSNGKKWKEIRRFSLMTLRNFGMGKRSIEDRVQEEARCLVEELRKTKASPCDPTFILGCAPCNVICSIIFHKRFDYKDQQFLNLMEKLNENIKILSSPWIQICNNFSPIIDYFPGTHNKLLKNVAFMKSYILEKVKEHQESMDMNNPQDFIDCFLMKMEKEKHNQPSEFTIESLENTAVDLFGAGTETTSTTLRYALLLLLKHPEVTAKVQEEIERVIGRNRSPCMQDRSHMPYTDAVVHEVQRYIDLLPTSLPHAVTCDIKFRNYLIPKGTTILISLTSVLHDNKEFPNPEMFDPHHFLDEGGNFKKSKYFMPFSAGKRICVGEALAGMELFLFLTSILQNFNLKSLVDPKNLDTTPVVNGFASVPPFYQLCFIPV

[3] = molecular target: T1, Oxysterols receptor LXR-beta (Homo sapiens, UniProt P55055); assay type: functional, cell-based;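 further: Cell-based luminescence dose-response assay of agonist activity at LXR, run as a confirmatory counterscreen to a daf-12 agonist screen; HEK293 cells with Gal4-LXR fusion and GAL4-driven luciferase reporter; agonist potency from rising luciferase signal of a Gal4-LXR reporter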
T1 sequence (P55055 whole entry): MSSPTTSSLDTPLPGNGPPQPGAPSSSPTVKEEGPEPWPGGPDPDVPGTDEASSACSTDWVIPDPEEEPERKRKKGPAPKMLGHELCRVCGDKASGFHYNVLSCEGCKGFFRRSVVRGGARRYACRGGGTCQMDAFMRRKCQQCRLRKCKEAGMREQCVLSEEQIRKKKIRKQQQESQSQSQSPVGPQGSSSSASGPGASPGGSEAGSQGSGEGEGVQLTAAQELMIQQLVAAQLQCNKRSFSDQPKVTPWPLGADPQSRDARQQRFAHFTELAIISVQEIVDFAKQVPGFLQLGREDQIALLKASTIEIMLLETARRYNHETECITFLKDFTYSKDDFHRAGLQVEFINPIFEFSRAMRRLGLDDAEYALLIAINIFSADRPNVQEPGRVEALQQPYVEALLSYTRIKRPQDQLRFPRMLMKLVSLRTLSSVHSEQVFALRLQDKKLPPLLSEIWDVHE

cells [4] = experiment: cells
[5] = inhibitors of firefly luciferase expression or activity, dose response, H4 neuroglioma cells, luminescence (AID 1990); assay type: functional, cell-based
[6] = Luminescence Cell-Based Dose Response HTS to Identify Inhibitors of 5'UTR Stem-Loop Driven Prion Protein mRNA Translation in H4 Neuroglioblastoma Cells. [Related pubchem assays: 1827 (Project Summary), 1813 (Primary HTS)]; assay type: functional
[7] = inhibitors of SNCA 5'UTR-driven reporter translation, confirmation, H4 neuroglioma cells, luminescence (AID 1988); assay type: functional, cell-based
[8] = HEK293T cytotoxicity, dose response, cytotoxicity control for miR-122 modulator project, cell-based, activator set, cherry-pick (AID 720690); assay type: functional;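 further: HEK293T human cells scored for general mammalian cytotoxicity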
[9] = cytotoxicity in HEK-293T cells, dose response, cytotoxicity control for TCR NF-kB inhibitor project, luminescence, T-cell screen hits (AID 489026); assay type: functional, cell-based;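 further: cells exposed to compound about 14 hours before the viability readout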
Paired box protein Pax-8 = Paired box protein Pax-8 (Homo sapiens, UniProt Q06710); experiment: inhibitors of PAX8-driven TPO luciferase reporter, dose response, RMG-I cells, cherry-pick (AID 687027); assay type: functional, cell-based;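 further: luciferase reporter driven by Pax8 target thyroperoxidase promoter measured by SteadyGlo luminescence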
Paired box protein Pax-8, sequence (Q06710 whole entry): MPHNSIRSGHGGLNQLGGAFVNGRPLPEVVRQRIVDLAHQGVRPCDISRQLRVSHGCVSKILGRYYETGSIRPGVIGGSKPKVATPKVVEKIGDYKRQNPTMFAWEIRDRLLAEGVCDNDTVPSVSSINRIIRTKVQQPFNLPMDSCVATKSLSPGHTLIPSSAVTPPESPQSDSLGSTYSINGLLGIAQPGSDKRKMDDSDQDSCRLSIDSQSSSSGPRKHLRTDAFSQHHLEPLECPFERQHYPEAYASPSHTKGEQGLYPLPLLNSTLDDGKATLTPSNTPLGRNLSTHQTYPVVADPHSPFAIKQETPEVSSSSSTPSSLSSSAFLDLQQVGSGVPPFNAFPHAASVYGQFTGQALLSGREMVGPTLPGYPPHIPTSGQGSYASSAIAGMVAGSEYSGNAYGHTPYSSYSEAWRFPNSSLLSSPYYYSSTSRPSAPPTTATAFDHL

[10] = A549 cell cytotoxicity, dose response, cytotoxicity control, plate reader, cherry-pick, antagonist series (AID 743412); assay type: functional, cell-based
[11] = HepG2 cell cytotoxicity, dose response, cytotoxicity control, plate reader, cherry-pick, antagonist series (AID 743416); assay type: functional, cell-based
[12] = LGR2 antagonists, dose response, cell-based, HEK293, CRE-luciferase reporter, cherry pick, set 2 (AID 743343); assay type: functional;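 further: transfected cells were stimulated with diluted bursicon conditioned medium after compound addition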
[13] = non-specific cell cytotoxicity, dose response, cytotoxicity control for PAX8 inhibitor project, plate reader, dry powder samples (AID 743021); assay type: functional, cell-based
[14] = MC4R antagonists, dose response, counter-screen for LGR2 antagonist project, cell-based, plate reader, cherry pick (AID 743444); assay type: functional;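 further: transfected HEK 293 cells stimulated with alpha-MSH peptide; potency of inhibitors of the alpha-MSH evoked signal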
[15] = HEK293 cell cytotoxicity, dose response, cytotoxicity control, plate reader, cherry-picked samples (AID 743446); assay type: functional, cell-based
[16] = system: Streptococcus sp. 'group A'; experiment: growth inhibition of control SK(-) GAS strain, dose response, counter-screen for streptokinase expression inhibitor project, luminescence, kanamycin, BacTiterGlo, confirmation (AID 1900); assay type: functional, organism-based
Streptokinase A = molecular target: T2, Streptokinase A (Streptococcus pyogenes serotype M1, UniProt P10520); experiment: S. pyogenes streptokinase expression inhibitors, potency, dose response, plasminogen activation absorbance, OD405 (AID 1914); assay type: functional, Streptococcus pyogenes M1 GAS;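 further: secreted streptokinase activity via plasminogen activation per viability signal from cell pellet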
T2 sequence (P10520 whole entry): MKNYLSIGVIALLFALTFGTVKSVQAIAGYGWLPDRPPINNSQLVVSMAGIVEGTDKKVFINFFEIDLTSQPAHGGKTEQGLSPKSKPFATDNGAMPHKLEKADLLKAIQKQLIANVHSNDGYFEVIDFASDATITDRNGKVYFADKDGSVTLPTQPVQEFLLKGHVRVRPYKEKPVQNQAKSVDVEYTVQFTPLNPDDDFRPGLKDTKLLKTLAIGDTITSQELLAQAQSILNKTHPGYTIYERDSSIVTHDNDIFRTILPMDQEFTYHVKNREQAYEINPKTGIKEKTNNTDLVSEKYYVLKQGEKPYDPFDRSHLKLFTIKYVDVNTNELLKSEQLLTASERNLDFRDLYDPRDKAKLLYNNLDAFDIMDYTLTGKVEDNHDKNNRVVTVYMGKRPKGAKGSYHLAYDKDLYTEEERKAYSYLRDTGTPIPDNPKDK

Streptococcus = experiment: Group A Streptococcus viability loss, dose response, counter-screen for streptokinase expression inhibitor project, luminescence, BacTiterGlo (AID 1915); assay type: functional, organism-based;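 further: potency for reduction of bacterial viability or growth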
[17] = THP-1 cell cytotoxicity, dose response, cytotoxicity control for non-replicating M. tuberculosis project (AID 489025); assay type: functional
[18] = Vero E6 cell cytotoxicity, dose response, cytotoxicity control for non-replicating M. tuberculosis project, secondary assay (AID 492998); assay type: functional, VeroE6; details: Vero C1008
cells [19] = assay type: functional
INS1 = experiment: beta cell apoptosis inhibitors, cytokine rescue, dose response, luminescence, retest (AID 449756); assay type: functional, cell-based; details: Rattus norvegicus;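 further: cell death triggered by IL-1 beta plus TNF-alpha plus IFN-gamma mixture; protective hits raise ATP signal compared with cytokine alone wells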
[20] = Artemis endonuclease inhibitor potency, dose response, biochemical, fluorescence intensity (AID 720701); assay type: functional;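 further: Artemis endonuclease enzyme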
[21] = miR-122 activators in hepatoma reporter cells, dose response, cell-based, Huh7 psiCHECK-miR122, Renilla luciferase, cherry-picked (AID 651956); assay type: functional;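 further: huh7 hepatoma cells stably carrying a psiCHECK-2 miR-122 sensor plasmid; renilla luciferase signal reporting endogenous miR-122 activity after 48 h compound exposure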
[22] = PAX2 cell-based inhibition, dose response, selectivity assay for PAX8 inhibitor project, plate reader, dry powder samples (AID 743048); assay type: functional;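 further: HEK293 cells carrying a WT1 promoter luciferase reporter driven by expressed Pax2; potency is for inhibition of Pax2 driven reporter signal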
[23] = PAX5 activity inhibitors, dose response, selectivity assay for PAX8 inhibitor project, cell-based, plate reader, dry powder samples (AID 743047); assay type: functional;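 further: HEK293 cells carrying a Pax5 driven CD19 promoter luciferase reporter; potency of inhibitors that lower reporter luminescence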
[24] = cytotoxicity in COV434 cells, dose response, cytotoxicity control for PAX8 inhibitor project, cell-based, plate reader, dry powder, SA7 (AID 743145); assay type: functional
[25] = P. falciparum 3D7-ScDHODH growth inhibitors, dose response, SYBR Green, dry powder samples (AID 1159570); assay type: functional, cell-based;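 further: parasite growth measured after 72 hours of compound exposure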
[26] = HepG2 cell cytotoxicity, dose response, cytotoxicity control, plate reader, dry powder samples (AID 1159569); assay type: functional, cell-based;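 further: inhibitor potency with signal falling toward the positive control level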
[27] = P. falciparum Dd2 growth inhibitors, dose response, SYBR Green, cherry-picked samples (AID 1159567); assay type: functional, cell-based
[28] = P. falciparum Dd2 growth inhibitors, dose response, SYBR Green, dry powder samples (AID 1159566); assay type: functional, cell-based;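 further: potency for growth inhibition with lower SYBR green DNA signal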
[29] = HepG2 cell cytotoxicity, dose response, cytotoxicity control, cherry-picked samples (AID 1159577); assay type: functional, cell-based
[30] = P. falciparum ATP4 D1247Y mutant growth inhibitors, dose response, NITD609-resistant line, SYBR Green, dry powder (AID 1159571); assay type: functional, cell-based;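 further: parasites synchronized at ring stage by sorbitol before testing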
[31] = A2780 ovarian cancer cell cytotoxicity, dose response, cytotoxicity control, plate reader, dry powder samples (AID 743046); assay type: functional, cell-based
[32] = NIH:OVCAR-3 ovarian cancer cell cytotoxicity, dose response, PAX8 inhibitor project, plate reader, dry powder samples (AID 743044); assay type: functional, cell-based
[33] = cytotoxicity in OVCAR8 ovarian cancer cells, dose response, PAX8 project, cell-based, plate reader, dry powder samples (AID 743197); assay type: functional; details: OVCAR-8
[34] = inhibitors of HIV Env-driven cell fusion, dose response, cherry-pick (AID 652057); assay type: functional, cell-based
[35] = ZM109 Env clade C HIV-1 fusion inhibitors, dose response, HeLa effector, CEM target cells, luciferase, cherry-pick (AID 652058); assay type: functional, cell-based
[36] = HIV Env cell-cell fusion inhibitors, dose response, HIV entry, plate reader, dry powder (AID 687023); assay type: functional, cell-based
[37] = molecular target: RNA-editing ligase 1, mitochondrial (Trypanosoma brucei brucei, UniProt P86926); experiment: TbREL1 ligase inhibitors, dose response, biochemical, fluorescence, Trypanosoma brucei (AID 1117295); assay type: functional
RNA-editing ligase 1, mitochondrial, sequence (P86926 whole entry): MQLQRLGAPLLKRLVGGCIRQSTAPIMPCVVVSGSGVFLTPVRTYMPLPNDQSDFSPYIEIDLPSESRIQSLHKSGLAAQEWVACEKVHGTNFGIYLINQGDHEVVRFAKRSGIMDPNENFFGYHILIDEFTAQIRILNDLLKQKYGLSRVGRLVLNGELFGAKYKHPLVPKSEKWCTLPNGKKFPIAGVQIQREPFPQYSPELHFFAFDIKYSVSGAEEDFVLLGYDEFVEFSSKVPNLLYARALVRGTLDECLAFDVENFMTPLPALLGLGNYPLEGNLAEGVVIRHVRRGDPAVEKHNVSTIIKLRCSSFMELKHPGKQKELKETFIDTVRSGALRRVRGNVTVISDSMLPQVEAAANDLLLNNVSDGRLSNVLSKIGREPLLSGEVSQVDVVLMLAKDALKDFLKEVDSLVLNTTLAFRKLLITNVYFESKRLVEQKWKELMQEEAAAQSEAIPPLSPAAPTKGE

Cytochrome P450 2C19, sequence (P33261 whole entry): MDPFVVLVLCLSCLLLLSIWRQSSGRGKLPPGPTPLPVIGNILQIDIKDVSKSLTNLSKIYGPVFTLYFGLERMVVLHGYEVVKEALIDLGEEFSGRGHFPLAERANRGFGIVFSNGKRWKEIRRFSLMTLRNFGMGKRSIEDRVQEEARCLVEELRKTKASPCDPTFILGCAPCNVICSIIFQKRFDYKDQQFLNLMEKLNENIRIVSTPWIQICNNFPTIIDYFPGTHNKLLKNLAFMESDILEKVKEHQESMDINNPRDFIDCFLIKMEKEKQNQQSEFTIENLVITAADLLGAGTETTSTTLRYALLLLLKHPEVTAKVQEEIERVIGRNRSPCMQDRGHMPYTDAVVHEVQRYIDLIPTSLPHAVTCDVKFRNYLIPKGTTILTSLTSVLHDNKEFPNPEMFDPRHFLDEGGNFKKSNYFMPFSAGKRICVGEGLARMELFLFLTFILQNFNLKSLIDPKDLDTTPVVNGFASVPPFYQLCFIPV

## O=C(Nc1cccc2ccccc12)c1ccccc1
Cytochrome P450 2C19
  AC50: 2.51 µM (inconclusive)
[1]
  IC50: > 123 µM (inactive)
[2]
  IC50: > 123 µM (inactive)
Cytochrome P450 2D6
  AC50: 0.00251 µM (inconclusive)
Cytochrome P450 2C9
  AC50: inconclusive

## Cc1ccnc(NC(=O)Nc2cccc(F)c2)c1
[3]
  EC50: > 67.5 µM (inactive)
Cells [4]
  EC50: > 67.5 µM (inactive)

## CCOc1ccc(-c2nnc(SCC(=O)Nc3ccc4c(c3)c3ccccc3n4CC)n2N)cc1
[5]
  EC50: 42.3 µM (active)
[6]
  EC50: > 120 µM (not active)
[7]
  EC50: 11.6 µM (active)
[8]
  AC50: 10.3 µM (active)

## c1cc2c(cc1C1=NN=C(NC3CC3)SC1)OCCO2
[9]
  IC50: > 80 µM (inactive)
Paired box protein Pax-8
  AC50: 2.14 µM (active)
[10]
  AC50: 5.39 µM (active)
[11]
  AC50: 6.46 µM (active)
[12]
  AC50: 0.276 µM (active)
[13]
  AC50: 7.92 µM (active)
[14]
  AC50: 0.251 µM (active)
[15]
  AC50: 4.07 µM (active)

## Cc1cc(C)n(-c2nc(NCCCO)c3c4c(sc3n2)CCCC4)n1
[16]
  EC50: 25.9 µM (active)
Streptokinase A
  EC50: > 150 µM (not active)
Streptococcus
  EC50: > 150 µM (not active)
[17]
  CC50: 38.6 µM (active)
[18]
  CC50: > 20 µM (active)
Cells [19]
  IC50: 5.54 µM (active)
INS1
  AC50: 5.71 µM (active)
[20]
  IC50: 17.9 µM (active)

## CC(C)c1ccc(C=NNc2ccc([N+](=O)[O-])cn2)cc1
[3]
  EC50: > 67.6 µM (inactive)
Cells [4]
  EC50: > 67.6 µM (inactive)

## Nc1nc(N)c2c(ccc3c2ccn3Cc2cccc([N+](=O)[O-])c2)n1
Paired box protein Pax-8
  AC50: 1.5 µM (active)
[13]
  AC50: 20.3 µM (active)

## C[C@@H]1CN([C@@H](C)CO)C(=O)Cc2cc(NC(=O)C3CCCCC3)ccc2O[C@H]1CN(C)Cc1ccc(-c2ccccc2)cc1
[21]
  AC50: 14.3 µM (active)
[8]
  AC50: 16.8 µM (active)

## COc1ccccc1C#Cc1ccc([C@@H]2[C@@H](C#N)N(C(=O)C3CCCCC3)[C@H]2CO)cc1
Paired box protein Pax-8
  AC50: 6.05 µM (active)
[22]
  AC50: 31.9 µM (active)
[23]
  AC50: 24.2 µM (active)
[24]
  AC50: > 70 µM (inactive)
[25]
  AC50: 0.689 µM (active)
[26]
  AC50: 21.8 µM (active)
[27]
  AC50: 1.37 µM (active)
[28]
  AC50: 0.562 µM (active)
[29]
  AC50: > 39 µM (inactive)
[30]
  AC50: 1.14 µM (active)

## Cc1noc(C)c1S(=O)(=O)N(C)C[C@H]1OCCCC[C@@H](C)Oc2ccc(NS(=O)(=O)c3ccc(Cl)cc3)cc2C(=O)N([C@@H](C)CO)C[C@@H]1C
Paired box protein Pax-8
  AC50: 10.5 µM (active)
[31]
  AC50: 12.1 µM (active)
[32]
  AC50: 46.2 µM (active)
[33]
  AC50: > 70 µM (inactive)

## Cc1ccc(S(=O)(=O)N(C)C[C@@H]2Oc3ccc(NS(=O)(=O)c4c(C)noc4C)cc3CC(=O)N([C@H](C)CO)C[C@@H]2C)cc1
[34]
  AC50: 23.2 µM (active)
[35]
  AC50: 5.38 µM (active)
[36]
  AC50: 11.4 µM (active)

## C[C@@H]1CN([C@@H](C)CO)C(=O)c2c(c3ccccc3n2C)-c2ccccc2CO[C@H]1CN(C)C(=O)Nc1cccc(Cl)c1Cl
[25]
  AC50: 2.3 µM (active)
[26]
  AC50: 27.4 µM (active)
[27]
  AC50: 1.86 µM (active)
[28]
  AC50: 1.49 µM (active)
[29]
  AC50: > 39 µM (inactive)
[30]
  AC50: 2.21 µM (active)

## COC(=O)C1=C(C)N(Cc2ccccc2C(F)(F)F)C(NCc2ccc(C(F)(F)F)cc2)=NC1c1ccc(C(F)(F)F)cc1 (configuration not stated)
[37]
  IC50: > 96.6 µM (inactive)
